Data: article PMC4182912 (Journal of medicinal chemistry, 2008)

Experiments:
[1] = test system: P-glycoprotein (P-gp) efflux pumps; conditions: cited from earlier work
recombinant hCB1r = recombinant hCB1r (Homo sapiens, UniProt P21554); format: biochemical
Chain of recombinant hCB1r (P21554 whole entry): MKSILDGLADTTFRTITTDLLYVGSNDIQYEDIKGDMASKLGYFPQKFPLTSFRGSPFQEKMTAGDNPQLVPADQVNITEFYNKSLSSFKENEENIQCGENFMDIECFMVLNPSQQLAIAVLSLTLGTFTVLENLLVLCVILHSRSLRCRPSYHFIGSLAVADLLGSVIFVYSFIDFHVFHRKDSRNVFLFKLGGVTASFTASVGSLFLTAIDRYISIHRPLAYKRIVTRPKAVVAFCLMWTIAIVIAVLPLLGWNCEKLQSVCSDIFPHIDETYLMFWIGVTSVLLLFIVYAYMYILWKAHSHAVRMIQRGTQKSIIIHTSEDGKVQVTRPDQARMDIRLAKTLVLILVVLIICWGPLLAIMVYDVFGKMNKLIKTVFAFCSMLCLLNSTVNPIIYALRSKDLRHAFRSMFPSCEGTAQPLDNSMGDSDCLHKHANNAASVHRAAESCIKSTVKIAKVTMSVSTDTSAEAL

eudismic ratio (CB1 receptor affinity, (-)- vs (+)-enantiomer) (recombinant hCB1r) | SMILES | substrate behavior for P-gp efflux pumps [1]
– | CN=C(NS(=O)(=O)c1ccc(Cl)cc1)N1C[C@H](c2ccccc2)C(c2ccc(Cl)cc2)=N1 [Ligand 3, (4S)-3-(4-chlorophenyl)-N-methyl-N’-[(4-chlorophenyl)sulfonyl]-4-phenyl-4,5-dihydro-1H-pyrazole-1-carboxamidine] | little to no substrate behavior
about 35 | N#Cc1ccc(S(=O)(=O)N=C(N)N2CC(c3ccccc3)C(c3ccc(Cl)cc3)=N2)cc1 (stereo not drawn) [Ligand 12a, 3-(4-Chlorophenyl)-N’-[(4-cyanophenyl)sulfonyl]-4-phenyl-4,5-dihydro-1H-pyrazole-1-carboxamidine] | –
~56 | NC(=NS(=O)(=O)c1ccc(I)cc1)N1CC(c2ccccc2)C(c2ccc(Cl)cc2)=N1 (stereo not drawn) [Ligand 12c, 3-(4-Chlorophenyl)-N’-[(4-iodophenyl)sulfonyl]-4-phenyl-4,5-dihydro-1H-pyrazole-1-carboxamidine] | –
